Measured values published in US20090175845A1, “METHODS FOR IDENTIFYING COMPOUNDS THAT MODULATE PHB DOMAIN PROTEIN ACTIVITY AND COMPOSITIONS THEREOF” (THE TRUSTEES OF COLUMBIA UNIVERSITY IN THE CITY OF NEW YORK, priority 2005, published 2009).

Tests used:
TRPC6 = biological target: T1, TRPC6 (Homo sapiens, UniProt Q9Y210); assay: Oocyte electrophysiology, two-electrode voltage clamp; type: cell-based; settings: TRPC6-expressing Xenopus laevis oocytes, Ca2+ free bath solution, 10 μM
T1 construct: expressed in transfected cells; host or cells: Xenopus laevis oocytes (cRNA injection)
T1 sequence (Q9Y210 1-931): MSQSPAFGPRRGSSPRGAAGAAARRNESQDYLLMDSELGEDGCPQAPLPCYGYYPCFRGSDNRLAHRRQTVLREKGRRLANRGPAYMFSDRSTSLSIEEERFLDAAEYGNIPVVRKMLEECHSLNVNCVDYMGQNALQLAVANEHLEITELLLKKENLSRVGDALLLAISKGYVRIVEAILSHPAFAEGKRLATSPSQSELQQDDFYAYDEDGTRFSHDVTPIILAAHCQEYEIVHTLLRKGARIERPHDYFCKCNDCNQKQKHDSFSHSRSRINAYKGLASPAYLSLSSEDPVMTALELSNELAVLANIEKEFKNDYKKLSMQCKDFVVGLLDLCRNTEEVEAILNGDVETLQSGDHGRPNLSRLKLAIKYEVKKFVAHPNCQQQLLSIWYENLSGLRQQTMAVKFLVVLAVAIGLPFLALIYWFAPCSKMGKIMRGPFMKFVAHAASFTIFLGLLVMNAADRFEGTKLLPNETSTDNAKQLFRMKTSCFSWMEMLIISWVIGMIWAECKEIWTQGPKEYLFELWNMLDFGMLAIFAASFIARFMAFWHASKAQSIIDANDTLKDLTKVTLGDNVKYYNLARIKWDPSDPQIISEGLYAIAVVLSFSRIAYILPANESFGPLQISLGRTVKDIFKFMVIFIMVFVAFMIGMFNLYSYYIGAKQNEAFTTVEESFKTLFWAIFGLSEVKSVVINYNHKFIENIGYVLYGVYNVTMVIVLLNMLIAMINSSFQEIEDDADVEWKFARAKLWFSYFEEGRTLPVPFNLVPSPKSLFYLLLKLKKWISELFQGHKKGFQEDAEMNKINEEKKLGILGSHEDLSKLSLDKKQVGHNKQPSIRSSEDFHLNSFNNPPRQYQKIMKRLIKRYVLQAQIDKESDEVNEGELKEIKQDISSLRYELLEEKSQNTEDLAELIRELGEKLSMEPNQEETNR
Experimental: Oocyte Electrophysiology. Xenopus laevis oocytes were isolated from adult frogs (Kähler, Hamburg, Germany), dispersed and defolliculated by a 45 minute treatment with collagenase (type A, Boehringer, Germany), and were rinsed and kept at 18° C. in ND96-buffer (in mmol/l): NaCl 96, KCI 2, CaCl2 1.8, MgCl2 1, HEPES 5, Na-pyruvate 2.5, pH 7.55), supplemented with theophylline (0.5 mmol/l) and gentamycin (5 mg/l).
To prepare cRNAs for TRPC6, Podocin and Podocin-DPHB (Podocin-ΔPHB), cDNAs encoding TRPC6, Podocin and Podocin-DPHB were transcribed in vitro using the T7 promoter and polymerase (Promega, Madison, Wis.). After isolation from adult Xenopus laevis female frogs (Kähler, Hamburg, Germany), oocytes were dispersed and defolliculated by a 45 minute treatment with collagenase (type A, Boebringer, Germany). Subsequently, the oocytes were rinsed and kept at 18° C. in ND96-buffer (in mmol/l): NaCl 96, KCI 2, CaCI2 1.8, MgCI2 1, HEPES 5, Na-pyruvate 2.5, pH. […] Membrane currents were measured by voltage clamping of the oocytes (Warner oocyte clamp amplifier OC725C) in intervals from −60 to +40 mV, each 1 s. Conductances were calculated according to Ohm's law. Na^+ conductances were determined by replacing Na^+ by n-methyl-D-glucamine (GNMDG) in a Ca^2+ free bath solution, before and after stimulation with 10 μM dioctanoyl glycerol (Sigma, Germany). […]

[1] = tested on: mec-2 null worms expressing the mec-2(C140/174A) gene; assay: C. elegans gentle touch sensitivity on plates with defined sterols; type: in vivo; settings: sterol substituted for cholesterol in the growth medium, FIG. 8C
Experimental: C. elegans experiments. C. elegans strains were cultured at 20° C., assayed for touch sensitivity, and prepared for immunofluorescence as described previously [Zhang et al. (2004) Curr. Biol. 14:1888-96; Goodman et al. (2002) Nature 415:1039-42]. Briefly, C. elegans strains were cultured at 20° C. as described in the art. Strains were grown for at least three consecutive generations without starvation before carrying out the experiments described herein. Gentle touch and harsh touch sensitivity were assayed in blind tests by stimulating with an eyebrow hair or prodding with a platinum wire, respectively, as described in the art. To quantify the response, the number of responses in about 30 animals to 10 touches delivered alternately near the head and tail was recorded. Whole-mount immunofluorescence microscopy was carried out using methods known in the art.
Media for growth on limiting or no cholesterol or on other sterols were prepared from chloroform-extracted reagents as described by Matyash et al. [(2004) PLoS Biol. 2: e280].
First, a version of MEC-2 with reduced cholesterol binding was generating by mutating the predicted palmitoylation sites of the protein. Briefly, HEK293T cells were transfected with wild type MEC-2 or MEC-2(C140/174A) and labeled with [^3H]palmitic acid or [^3H]photoaffinity cholesterol. Equal expression of proteins in the lysates was confirmed on Western blots. […] Because touch sensitivity of wild-type animals was not affected by this limited cholesterol depletion, the effects observed with the palmitoylation mutant cannot be attributed to indirect effects on neuronal growth or development. Test compounds that target palmitoylation sites in PHB domain proteins can be used to modulate activity of such proteins, for example, by reducing their activity.

Structure (SMILES)	inward Na+ current (TRPC6)	rescue of reduced touch sensitivity [1]
CCCCCCCC/C=C\CCCCCCCC(=O)OC[C@H](CO)OC(C)=O [OAG, 1-oleoyl-2-acetyl-sn-glycerol]	further augmented	
CC(C)[C@@H](C)/C=C/[C@@H](C)[C@H]1CC[C@H]2C3=CC=C4C[C@@H](O)CC[C@]4(C)[C@H]3CC[C@]12C [ergosterol]		could be rescued
CC(C)CCC[C@@H](C)[C@H]1CC[C@H]2C3=CC=C4C[C@@H](O)CC[C@]4(C)[C@H]3CC[C@]12C [7-dehydro cholesterol]		could be rescued
CC(C)CCC[C@@H](C)[C@H]1CC[C@H]2C3=CC[C@H]4C[C@@H](O)CC[C@]4(C)[C@H]3CC[C@]12C [lathosterol]		could be rescued
